Reference: patent US12121522B2, “Methods of treating cancer with an mTOR inhibitor” (Revolution Medicines, Inc., priority 2022, dated 2024)

Legend:
tumor p4EBP1 = test: PK-pharmacodynamics of tumor p4EBP1 and pS6RP in MCF7 tumor-bearing mice; type: in vivo, mouse
Source text: FIGS. 4A-4C show Pharmacokinetic-Pharmacodynamic Profile for RMC-5552 Modulation of Tumor p4EBP1 and pS6RP in MCF7 Tumor Bearing Athymic Nude Mice. Abbreviations: IP=intraperitoneal; p4EBP1=phosphorylated eukaryotic translation initiation factor 4E-binding protein 1; PK=pharmacokinetic; pS6RP=phosphorylated S6 ribosomal protein; u=unbound. […] Data represent means±standard errors (n=3).
Colors of symbols denote time of tissue harvest following IP administration of a single dose of RMC-5552. […] Data represent means standard errors (n=3).
The in vivo PK-pharmacodynamic relationship for inhibition of activated mTOR pathway signaling of RMC-5552 as a single agent was determined in the breast cancer MCF7 and HCC-1954 PIK3CA mutant CDX models.
Consistent with inhibition of mTORC1 signaling in vitro, IP administration of RMC-5552 to nude mice produced a dose and plasma concentration-dependent-inhibition of tumor p4EBP1 and pS6RP (a direct substrate of P70S6K) in PI3K mutant breast cancer MCF7 xenograft models FIG. 5. Inhibition of p4EBP1 was maximal at 24 to 48 hours after treatment.

[1] = tested on: BLC1521 TSC1 protein-negative bladder cancer; test: BLC1521 bladder cancer xenograft; type: in vivo, mouse
Method: (§1) The antitumor activity of RMC-5552 as a single agent against tumors predicted to be dependent on the mTOR pathway and/or bearing specific PI3K/mTOR pathway-activating mutations (i.e., PIK3CA^mut, phosphatase and tensin homolog [PTEN^LOF], or co-mutation of both and tuberous sclerosis complex [TSC^LOF]) was evaluated in selected CDX and/or PDX models
Table 1. RMC-5552 was administered IP once weekly at 1, 3, 10, and 30 mg/kg. In the breast cancer MCF7 PIK3CA^[…] model, a higher dose of 50 mg/kg once weekly and an alternate dose regimen of 30 mg/kg every 10 days were also evaluated.

[2] = tested on: murine models of mTORC1-activated cancers; details: mouse, in vivo
Method: as §1

ctDNA (mean VAF) = test: ctDNA molecular response (Guardant Health algorithm); type: in vivo, human
Method: The mean±SEM of fractional change in mean VAF from C1D1 to C3D1 was determined by the Guardant Health Molecular Response Algorithm. […] Change in ctDNA is presented as mean±SEM of % change in mean VAF from C1D1 to C3D1. […] The results presented in FIGS. 8 and 9, supported by preclinical data, indicate that the dose range of 6 mg to 12 mg represents a “steep” dose-exposure-response relationship.

Mouse plasma exposure = type: in vivo; details: fu 0.001-0.004

Structure (SMILES): CO[C@H]1C[C@@H]2CC[C@@H](C)[C@@](O)(O2)C(=O)C(=O)N2CCCC[C@H]2C(=O)O[C@H]([C@H](C)C[C@@H]2CC[C@@H](OC(=O)NCCOCCOCCOCCOCCOCCOCCOCCOCCC(=O)N3CCc4cc(Cn5nc(-c6ccc7oc(N)nc7c6)c6c(N)ncnc65)ccc4C3)[C@H](OC)C2)C[C@@H](O)[C@H](C)/C=C(\C)[C@@H](O)[C@@H](OC)C(=O)[C@H](C)C[C@H](C)/C=C/C=C/C=C/1C [RMC-5552]
- maximum level of inhibition of p4EBP1 relative to control (tumor p4EBP1; MCF7, single IP dose): > 90%
- EC50 (tumor p4EBP1; unbound plasma concentration, MCF7, read-out: in vivo EC50 for inhibition of p4EBP1): 0.22 nM
- TGI ([1]; 3 mg/kg IP QW): 94%
- tumor regression ([1]; 10 mg/kg IP QW): 45% regression
- tolerability of doses and regimens [2]: generally well-tolerated
- decrease in VAF (ctDNA (mean VAF); 67F NSCLC STK11, TSC2, KRAS L19F, 8 mg QW): reduction in lesion; 31%
- MR (molecular response) (ctDNA (mean VAF); endometrial PIK3CA, PTEN, TSC2, 8 mg QW): SD; MR 64%
- subjects with molecular response (ctDNA (mean VAF); of 6 subjects with SD as best response and a pathogenic mTOR pathway variant): 3
- molecular response (ctDNA (mean VAF); one subject on 12 mg initial dose): effective molecular complete response
- MR (molecular response) (ctDNA (mean VAF); uterine CaSarc TSC1 LOF, 10 mg single dose, 6 mg QW): 91%
- Unbound AUC0-last, mean mouse exposure (Mouse plasma exposure; 1 mg/kg): 0.021 to 0.084 µM·h
- Unbound Cmax, mean mouse exposure (Mouse plasma exposure; 1 mg/kg): 2 to 8 nM
- Unbound AUC0-last, mean mouse exposure (Mouse plasma exposure; 3 mg/kg): 0.053 to 0.21 µM·h
- Unbound Cmax, mean mouse exposure (Mouse plasma exposure; 3 mg/kg): 3.7 to 14.7 nM
